From publication PMC3189179, “Rapid Development of New Protein Biosensors Utilizing Peptides Obtained via Phage Display” (PLoS ONE, 2011)

What was measured:
[1] = biological target: T1, ALT (human liver) (Homo sapiens, UniProt P24298); assay: Uninhibited ALT enzyme kinetics (coupled ALT/LDH assay); type: biochemical; conditions: absence of peptide, pH 7.8, 37 °C, triplicate, bi-bi ping-pong fit (Eqn. 1)
T1 construct: ALT (human liver) and lactate dehydrogenase (LDH) were obtained from Lee Biosolutions, Inc; purchased Lee Biosolutions, Inc. (St. Louis, Missouri); host or cells: human liver
T1 sequence (P24298 2-496 limits assumed): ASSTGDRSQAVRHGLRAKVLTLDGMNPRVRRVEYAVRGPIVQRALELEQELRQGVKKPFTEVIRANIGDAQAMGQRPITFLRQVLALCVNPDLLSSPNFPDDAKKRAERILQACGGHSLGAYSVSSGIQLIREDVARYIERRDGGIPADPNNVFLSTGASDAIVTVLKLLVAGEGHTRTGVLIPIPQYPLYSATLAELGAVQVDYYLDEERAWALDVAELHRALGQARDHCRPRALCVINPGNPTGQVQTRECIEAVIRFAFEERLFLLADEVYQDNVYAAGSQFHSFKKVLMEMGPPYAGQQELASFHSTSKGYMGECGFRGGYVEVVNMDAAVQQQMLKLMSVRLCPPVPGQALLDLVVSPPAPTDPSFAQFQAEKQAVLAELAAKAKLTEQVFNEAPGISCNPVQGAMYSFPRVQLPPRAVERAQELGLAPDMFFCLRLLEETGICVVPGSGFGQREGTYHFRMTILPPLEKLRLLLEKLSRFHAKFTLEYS
Method: ALT enzyme kinetics were measured to determine the impact of the ALT5-8 peptide on the activity of the enzyme. Kinetic experiments were performed in a coupled assay where the pyruvate generated by ALT was reduced to lactate by LDH with the concomitant oxidation of NADH. The depletion of NADH was monitored by following its absorbance at 340 nm in UV-transparent microplates. […] Initial concentrations of pyridoxal 5′-phosphate, NADH, and LDH were 0.1 mM, 0.25 mM and 47 U/L respectively. The reactions were initiated by the addition of 330 U/L ALT and all measurements were made in triplicate. All stock solutions were prepared in 100 mM Tris-HCl buffer (pH 7.8), and all kinetic trials were conducted 300 µL at 37 °C.

[2] = biological target: T1, ALT (human liver); assay: ELISA for phage clone binding to immobilized ALT; conditions: 10^5 to 10^11 pfu, triplicate, 405 nm, 1 hr room temperature
Method: To test whether or not the selected phage clones from the biopanning procedure could bind to ALT, ELISA assays were performed. Microplates were coated with ALT (2.6 µg/mL) overnight at 4°C, blocked with blocking buffer, and washed 6 times with TBST solution (containing 0.1% Tween 20). Varying amounts of amplified phage clones were added to each well and incubated for 1 hr at room temperature. After washing, HRP-conjugated anti-M13 monoclonal antibody (diluted 1∶5000 in blocking buffer) was added and incubated at room temperature for 1 hr. Following incubation and washing again with the same buffer, ABTS and H2O2 (30%, v/v) were added and the absorbance was measured after a 1 hr incubation with mild agitation at 405 nm with a microplate spectrophotometer (Molecular Devices, Sunnyvale, CA).
In order to estimate the apparent dissociation constant for the ALT5-8 clone, further ELISA experiments were performed with extended phage concentrations. The data were fit to a Langmuir isotherm using non-linear regression (SigmaPlot, San Jose, CA) and the Kd,app was determined.

[3] = biological target: T1, ALT (human liver); assay: Biopanning of phage-displayed peptide library over immobilized ALT; type: binding; conditions: 12 phage clones after fifth round of biopanning against ALT
Method: ALT (2.6 µg/mL) was dissolved in NaHCO3 buffer (100 mM, pH 8.3) and transferred to the wells of polystyrene microplates. After overnight incubation with mild agitation at 4°C, the well surfaces were coated with ALT. The well surfaces were then blocked with blocking buffer (0.1 M NaHCO3 containing 2% BSA and 0.02% of NaN3) for 1 hr at 4°C, and washed 6 times with TBST (50 mM Tris-HCl pH 7.5, 150 mM NaCl, 0.1% Tween 20) to remove weakly bound ALT. […] Wells were washed 10 times with TBST to remove unbound phage. The bound phage were eluted with 100 µL of 0.2 M glycine-HCl (pH 2.2) and the elution was immediately neutralized with 15 µL Tris-HCl (1 M, pH 9.1) to prevent phage killing. The eluted phage were amplified in E. coli ER2738 and the phage were harvested by precipitation with NaCl/polyethylene glycol (20% (w/v) polyethylene glycol-8000 with 2.5 M NaCl). This biopanning process was repeated for five rounds. The concentration of Tween 20 in the washing step was increased from 0.1% in the first round of panning to 0.3% in the second round of panning and 0.5% in the final three rounds of panning. After each round of panning, the phage were titered using Luria-Bertani (LB) broth plates containing isopropyl β-D-thiogalactopyranoside (IPTG) and X-gal. After the fifth round of selection, twelve blue monocolonies were randomly picked and amplified for DNA sequencing.

[4] = biological target: T1, ALT (human liver); assay: Coupled enzyme assay (ALT/LDH, NADH depletion): peptide inhibition of ALT, bi-bi ping-pong fit with competitive inhibitor; type: biochemical
Method: ALT enzyme kinetics were measured to determine the impact of the ALT5-8 peptide on the activity of the enzyme. Kinetic experiments were performed in a coupled assay where the pyruvate generated by ALT was reduced to lactate by LDH with the concomitant oxidation of NADH. The depletion of NADH was monitored by following its absorbance at 340 nm in UV-transparent microplates. […] The reactions were initiated by the addition of 330 U/L ALT and all measurements were made in triplicate. All stock solutions were prepared in 100 mM Tris-HCl buffer (pH 7.8), and all kinetic trials were conducted 300 µL at 37 °C. […] Free ALT5-8 peptide inhibitor (I) was added to the reactions at concentrations from 0–0.25 µM.

[5] = biological target: T1, ALT (human liver); assay: EIS detection of ALT with peptide-modified gold electrode; type: binding; conditions: biosensor made from the peptide coupled with EIS detection
Method: All electrochemical measurements were performed with a µAUTOLAB potentiostat (Type III, FRA2, Metrohm Autolab, Netherlands). A gold wire (dia. 1 mm) sealed in epoxy was used as a working electrode and a platinum mesh was used as a counter electrode. All potentials measured are reported versus a Ag/AgCl reference electrode. Both cyclic voltammetry and EIS measurements were conducted in a solution of 1 mM ferro/ferricyanide in 0.1 M sodium perchlorate.
CV and EIS were performed as previously described. Briefly, the gold electrodes were prepared in 0.1 mM peptide solution for 1 hr, followed by backfilling in 1 mM cysteine solution for 2 hr to obtain a Au-Pep-Cys electrode. The Au-Pep-Cys electrodes were incubated in ALT solution for 1 hr before CV and EIS measurements. After each electrode preparation step, the electrode is removed and placed into solutions of 1 mM ferro/ferricyanide in 0.1 M NaClO4for analysis. Therefore, all the electrochemical measurements were conducted in the ferro/ferricyanide solution which eliminates the effect of any potential viscosity differences between the sample solutions. CV experiments were performed at a potential scan rate of 100 mV/s. Impedance spectra were recorded over a frequency range of 0.1–10^5 Hz. […] The impedance was recorded and a Nyquist plot was obtained. […]

[6] = biological target: T1, ALT (human liver); assay: QCM binding of ALT to immobilized peptide; conditions: ALT as compared to BSA and SA, 10 µg/mL each
Description: All reagents used were analytical grade or higher unless otherwise stated. Escherichia coli strain ER2738, a host for M13 phage, and a polyvalent M13 phage display kit (Ph.D.-12) which contained random 12-mer peptides were obtained from New England Biolabs (Ipswich, MA). ALT (human liver) and lactate dehydrogenase (LDH) were obtained from Lee Biosolutions, Inc. (St. Louis, Missouri). Horseradish peroxidase (HRP) conjugated anti-M13 monoclonal antibody was from GE Healthcare (Piscataway, NJ). Tween 20, 2,2′-Azino-bis(3-ethylbenzothiazoline-6-sulfonic acid) diammonium salt (ABTS), streptavidin (SA) from Streptomyces avidinii, bovine serum albumin (BSA), L-cysteine hydrochloride (98%) and all other chemicals were purchased from Sigma-Aldrich (St. Louis, MO). Polystyrene microplates were from Pierce Biotechnology (Rockford, IL). The ALT5-8 peptide modified with a C-terminal cysteine (sequence: […]) was synthesized (>90% purity) by Genscript (Piscataway, NJ). Quartz crystals (AT-cut, 5 MHz) with Au deposited on both sides were obtained from Inficon (East Syracuse, New York). Buffer solutions (pH = 7.3) containing 0.01 M sodium phosphate and 0.1 M NaCl were used to make all protein (1–10 µg/mL) and peptide (0.1 mM) solutions for the QCM and EIS measurements. All solutions were prepared using Milli-Q water. […]

[7] = biological target: T2, alanine aminotransferase (Homo sapiens, UniProt P24298); assay: phage ELISA
T2 chain: T1 sequence (P24298 2-496 limits assumed)

[8] = substrate: C[C@H](N)C(=O)O; assay: purified protein, by the assay type; conditions: other: substrate of ALT, absence of peptide, pH 7.8, 37 °C, triplicate, bi-bi ping-pong fit (Eqn. 1)
[9] = biological target: T2, alanine aminotransferase; assay: enzyme inhibition kinetics
[10] = biological target: T2, alanine aminotransferase; assay: QCM

## α-ketoglutarate [reference compound]
[1]; substrate of ALT, read-out: Michaelis constant KM
  Km: 90 ± 30 µM

## SNNLYPQRAVST [ALT4-3]
[2]
  affinity of phage clone for immobilized ALT (in words): low affinity for ALT similar to that of the M13 control phage
[3]
  Frequency of sequence among sequenced clones: 1/12

## LETEWDSLWYAP [ALT5-9]
[2]
  affinity of phage clone for immobilized ALT (in words): low affinity for ALT similar to that of the M13 control phage
[3]
  Frequency of sequence among sequenced clones: 1/12

## WHWRNPDFWYLK [ALT5-8, 12-mer peptide selected by M13 phage display over ALT; tested on phage and as free peptide]
[4]; Lineweaver-Burk plots, with respect to alanine
  mode of inhibition: competitive inhibitor
[4]; peptide to protein ratio 2∶1
  residual enzyme activity with peptide (in words): the enzyme was still quite active
[5]
  limit of detection (LOD), EIS: 0.092 µg/mL
[2]
  affinity of phage clone for immobilized ALT (in words): dose-dependent affinity for the ALT protein
[3]
  Frequency of sequence among sequenced clones: 10/12
[6]
  selectivity (in words): selective for ALT as compared to BSA and SA

## WHWRNPDFWYLK (displayed on M13 phage) [ALT5-8 peptide (phage-displayed)]
[7]
  Kd: 85 nM

B1: ALT (human liver) (Homo sapiens) (protein)
chain: T1 sequence (P24298 2-496 limits assumed)
[8]
  Km: 8000 ± 900 µM
[1]
  kcat: 5.8 ± 0.2 s⁻¹

## WHWRNPDFWYLK [ALT5-8 peptide]
[9]
  Ki: 71 nM

## WHWRNPDFWYLKC (immobilized on gold via C-terminal cysteine) [ALT5-8 peptide (C-terminal Cys)]
[10]
  Kd: 20.1 nM
